Results published in ChEMBL document CHEMBL1201862, “PubChem BioAssay data set” (2004).
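Briefly, cells in 96-well plates were exposed to five compound concentrations for 48 h, and endpoints were estimated by linear interpolation. At the GI50, growth is halved.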 The source made the active and inactive calls. No stated cut-off is given here; in the data, active = GI50 up to about 1.1 µM and inactive = higher.

Tests used:
Assay in all cases: NCI tumour cell line growth inhibition, 48 h
IGROV-1 = tested on: IGROV-1
CCRF-CEM = tested on: CCRF-CEM
K562 = tested on: K562
T47D = tested on: T47D
MDA-MB-231 = tested on: MDA-MB-231
PC-3 = tested on: PC-3
OVCAR-4 = tested on: OVCAR-4
MDA-MB-435 = tested on: MDA-MB-435
ACHN = tested on: ACHN
SK-OV-3 = tested on: SK-OV-3
A549 = tested on: A549
HCT-15 = tested on: HCT-15
786-0 = tested on: 786-0
MDA-N = tested on: MDA-N
SNB-19 = tested on: SNB-19
Malme-3M = tested on: Malme-3M
UACC-257 = tested on: UACC-257
NCI-H23 = tested on: NCI-H23
RPMI-8226 = tested on: RPMI-8226
TK-10 = tested on: TK-10
SF-268 = tested on: SF-268
DU-145 = tested on: DU-145
SN12C = tested on: SN12C
HT-29 = tested on: HT-29
LOX IMVI = tested on: LOX IMVI
M14 = tested on: M14
HCT-116 = tested on: HCT-116
BT-549 = tested on: BT-549
HOP-62 = tested on: HOP-62
SF-539 = tested on: SF-539
SF-295 = tested on: SF-295
OVCAR-5 = tested on: OVCAR-5
MCF7 = tested on: MCF7
SW-620 = tested on: SW-620
UACC-62 = tested on: UACC-62
NCI-H226 = tested on: NCI-H226
Hs-578T = tested on: Hs-578T
UO-31 = tested on: UO-31
HL-60 = tested on: HL-60
NCI-H460 = tested on: NCI-H460
COLO 205 = tested on: COLO 205
A498 = tested on: A498
SK-MEL-5 = tested on: SK-MEL-5
SK-MEL-2 = tested on: SK-MEL-2
EKVX = tested on: EKVX
HOP-92 = tested on: HOP-92
SK-MEL-28 = tested on: SK-MEL-28
HCC 2998 = tested on: HCC 2998
OVCAR-3 = tested on: OVCAR-3
SR = tested on: SR
U-251 = tested on: U-251
MOLT-4 = tested on: MOLT-4
NCI-H522 = tested on: NCI-H522
RXF 393 = tested on: RXF 393
OVCAR-8 = tested on: OVCAR-8
NCI/ADR-RES = tested on: NCI/ADR-RES
SNB-75 = tested on: SNB-75
CAKI-1 = tested on: CAKI-1
KM12 = tested on: KM12

CC(=O)NCCCCN(CCCNC(C)=O)C(=O)CNS(=O)(=O)c1cccc2c(N(C)C)cccc12
GI50 (IGROV-1): > 100 µM (inactive)
GI50 (CCRF-CEM): > 100 µM (inactive)
GI50 (K562): > 100 µM (inactive)
GI50 (T47D): > 100 µM (inactive)
GI50 (MDA-MB-231): > 100 µM (inactive)
GI50 (PC-3): > 100 µM (inactive)
GI50 (OVCAR-4): > 100 µM (inactive)
GI50 (MDA-MB-435): > 100 µM (inactive)
GI50 (ACHN): > 100 µM (inactive)
GI50 (SK-OV-3): > 100 µM (inactive)
GI50 (A549): > 100 µM (inactive)
GI50 (HCT-15): > 100 µM
GI50 (786-0): > 100 µM (inactive)
GI50 (MDA-N): > 100 µM (inactive)
GI50 (SNB-19): > 100 µM (inactive)
GI50 (Malme-3M): > 100 µM (inactive)
GI50 (UACC-257): > 100 µM (inactive)
GI50 (NCI-H23): > 100 µM (inactive)
GI50 (RPMI-8226): > 100 µM (inactive)
GI50 (TK-10): > 100 µM (inactive)
GI50 (SF-268): > 100 µM (inactive)
GI50 (DU-145): > 100 µM (inactive)
GI50 (SN12C): > 100 µM (inactive)
GI50 (HT-29): > 100 µM (inactive)
GI50 (LOX IMVI): > 100 µM (inactive)
GI50 (M14): > 100 µM (inactive)
GI50 (HCT-116): > 100 µM (inactive)
GI50 (BT-549): > 100 µM (inactive)
GI50 (HOP-62): > 100 µM (inactive)
GI50 (SF-539): > 100 µM (inactive)
GI50 (SF-295): > 100 µM (inactive)
GI50 (OVCAR-5): > 100 µM (inactive)
GI50 (MCF7): > 100 µM (inactive)
GI50 (SW-620): > 100 µM (inactive)
GI50 (UACC-62): > 100 µM (inactive)
GI50 (NCI-H226): > 100 µM (inactive)
GI50 (Hs-578T): > 100 µM (inactive)
GI50 (UO-31): > 100 µM (inactive)
GI50 (HL-60): > 100 µM (inactive)
GI50 (NCI-H460): > 100 µM (inactive)
GI50 (COLO 205): > 100 µM (inactive)
GI50 (A498): > 100 µM (inactive)
GI50 (SK-MEL-5): > 100 µM (inactive)
GI50 (SK-MEL-2): > 100 µM (inactive)
GI50 (EKVX): > 100 µM (inactive)
GI50 (HOP-92): > 100 µM (inactive)
GI50 (SK-MEL-28): > 100 µM (inactive)
GI50 (HCC 2998): > 100 µM (inactive)
GI50 (OVCAR-3): > 100 µM (inactive)
GI50 (SR): > 100 µM (inactive)
GI50 (U-251): > 100 µM (inactive)
GI50 (MOLT-4): > 100 µM (inactive)
GI50 (NCI-H522): > 100 µM (inactive)
GI50 (RXF 393): > 100 µM (inactive)

Cc1cc(S(=O)(=O)Nc2nc(N)nc(N3N=CCC3C)n2)c(S)cc1Cl (stereo not given)
GI50 (IGROV-1): > 10 µM (inactive)
GI50 (CCRF-CEM): > 10 µM (inactive)
GI50 (K562): > 10 µM (inactive)
GI50 (T47D): > 10 µM (inactive)
GI50 (PC-3): > 10 µM (inactive)
GI50 (OVCAR-8): > 10 µM (inactive)
GI50 (OVCAR-4): > 10 µM (inactive)
GI50 (ACHN): > 10 µM (inactive)
GI50 (SK-OV-3): > 10 µM (inactive)
GI50 (A549): > 10 µM (inactive)
GI50 (HCT-15): > 10 µM
GI50 (786-0): > 10 µM (inactive)
GI50 (MDA-N): > 10 µM (inactive)
GI50 (SNB-19): > 10 µM (inactive)
GI50 (Malme-3M): > 10 µM (inactive)
GI50 (UACC-257): > 10 µM (inactive)
GI50 (NCI-H23): > 10 µM (inactive)
GI50 (RPMI-8226): > 10 µM (inactive)
GI50 (NCI/ADR-RES): > 10 µM (inactive)
GI50 (SNB-75): > 10 µM (inactive)
GI50 (TK-10): > 10 µM (inactive)
GI50 (SF-268): > 10 µM (inactive)
GI50 (DU-145): > 10 µM (inactive)
GI50 (SN12C): > 10 µM (inactive)
GI50 (HT-29): > 10 µM (inactive)
GI50 (LOX IMVI): > 10 µM (inactive)
GI50 (M14): > 10 µM (inactive)
GI50 (HCT-116): > 10 µM (inactive)
GI50 (BT-549): > 10 µM (inactive)
GI50 (HOP-62): > 10 µM (inactive)
GI50 (CAKI-1): > 10 µM (inactive)
GI50 (SF-539): > 10 µM (inactive)
GI50 (SF-295): > 10 µM (inactive)
GI50 (OVCAR-5): > 10 µM (inactive)
GI50 (MCF7): > 10 µM (inactive)
GI50 (SW-620): > 10 µM (inactive)
GI50 (NCI-H226): > 10 µM (inactive)
GI50 (Hs-578T): > 10 µM (inactive)
GI50 (UO-31): > 10 µM (inactive)
GI50 (HL-60): > 10 µM (inactive)
GI50 (NCI-H460): > 10 µM (inactive)
GI50 (COLO 205): > 10 µM (inactive)
GI50 (A498): > 10 µM (inactive)
GI50 (SK-MEL-5): > 10 µM (inactive)
GI50 (SK-MEL-2): > 10 µM (inactive)
GI50 (EKVX): > 10 µM (inactive)
GI50 (KM12): > 10 µM (inactive)
GI50 (HOP-92): > 10 µM (inactive)
GI50 (SK-MEL-28): > 10 µM (inactive)
GI50 (HCC 2998): > 10 µM (inactive)
GI50 (OVCAR-3): > 10 µM (inactive)
GI50 (SR): > 10 µM (inactive)
GI50 (U-251): > 10 µM (inactive)
GI50 (MOLT-4): > 10 µM (inactive)
GI50 (NCI-H522): > 10 µM (inactive)
GI50 (RXF 393): > 10 µM (inactive)
